Reference: US10746747B2, “Method for quantitative characterization of substances with regard to their properties of binding to amyloid-β (Aβ) conformers” (FORSCHUNGSZENTRUM JUELICH GMBH, priority 2013, dated 2020)
Where two headings read alike, the source gives them in different places. Square brackets hold non-standard residues; d marks the D form. Peptide text beside a SMILES is read from it.

What was measured:
Aβ(1-42) monomers = biological target: T1, Aβ(1-42) monomers (Homo sapiens, UniProt P05067); assay: SPR single-cycle kinetics on immobilized Aβ(1-42) monomers; settings: monomers by density gradient centrifugation, 1423 RU immobilized, heterogeneous binding model, two sites
T1 construct: sensor surfaces containing immobilized Aβ(1-42) monomers, oligomers and fibrils
T1 sequence (P05067 672-713 limits assumed): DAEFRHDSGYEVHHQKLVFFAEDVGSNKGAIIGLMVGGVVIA
Protocol: (§1) The results can be obtained by surface plasmon resonance or by biolayer interferometry. In the case of surface plasmon resonance, regeneration steps between individual analyte injections are circumvented by carrying out the interaction studies using the “single-cycle kinetics” measurement method. Thus, advantageously, different analyte concentrations are injected directly one after the other.
(§2) In order to ensure a homogeneous sample preparation, monomers and oligomers were separated by means of size exclusion chromatography (SEC), and fibrils were separated from other forms by means of density gradient centrifugation. The immobilization on streptavidin-loaded SPR sensor surfaces took place by using biotinylated Aβ(1-42), oligomers and fibrils being composed of a 1:10 ratio of biotinylated Aβ(1-42) to non-biotinylated Aβ(1-42).
(§3) The lyophilized samples of N-terminally biotinylated Aβ(1-42) and non-biotinylated Aβ(1-42) were each dissolved separately from one another in 100% hexafluoroisopropanol (HIFP) and incubated overnight at room temperature. The volumes required for a 1:10 ratio were then combined and the HFIP was evaporated off using a concentrator.
(§4) For the preparation of monomeric and oligomeric Aβ(1-42), the previously obtained pellet was taken up in the size exclusion chromatography buffer (50 mM sodium phosphate buffer, 150 mM NaCl, 0.6% Tween 20, pH 7.4) and briefly centrifuged for 30 seconds at 15500 g in order to sediment insoluble material.
(§5) The supernatant after the centrifugation step at the end of the preparation of monomeric and oligomeric Aβ(1-42) was then applied directly to a Superdex 75 10/300 GL (GE Healthcare) column for chromatographic separation. The flow rate during the elution with size exclusion chromatography buffer was 0.8 ml/min. Monomers eluted at ˜14 ml, whereas oligomers eluted at ˜8 ml.
(§6) The density gradient was prepared by subsequently layering over the density gradient solution (iodixanol diluted in 10 mM sodium phosphate buffer pH 7.4) in concentrations of 50% (260 μl), 40% (260 μl), 30% (260 μl), 20% (260 μl), 10% (260 μl) and 5% (100 μl) (v/v). The samples were then pipetted onto the density gradient and centrifugation was carried out for 3 hours at 4° C. and 259000 g. A total of 14 fractions, each of 140 μl, was then removed from the density gradient from top to bottom. Monomers are found in the first fraction, oligomers are found in fractions 5 and 6, and fibrils are found typically in fractions 11-13.
(§7) The monomers are biotinylated C-terminally, unlike the oligomers and fibrils (N-terminally). The response units (Y-axis) were plotted against the time in seconds (X-axis), wherein the black curves represent the double-referenced experimental data and the gray superposed curves represent the fits. […]

Aβ(1-42) oligomers = biological target: T2, Aβ(1-42) oligomers (Homo sapiens, UniProt P05067); assay: SPR single-cycle kinetics on immobilized Aβ(1-42) oligomers; settings: oligomers by density gradient centrifugation, 1356 RU immobilized, heterogeneous binding model, two sites
T2 construct: oligomers and fibrils being composed of a 1:10 ratio of biotinylated Aβ(1-42) to non-biotinylated Aβ(1-42)
T2 sequence (P05067 672-713 limits assumed): as above
Protocol: as §1, §2, §3, §4, §5, §6, §7

Aβ(1-42) fibrils = biological target: T3, Aβ(1-42) fibrils (Homo sapiens, UniProt P05067); assay: SPR single-cycle kinetics on immobilized Aβ(1-42) fibrils; settings: fibrils by density gradient centrifugation, 1324 RU immobilized, binding model with three binding sites
T3 construct: oligomers and fibrils being composed of a 1:10 ratio of biotinylated Aβ(1-42) to non-biotinylated Aβ(1-42)
T3 sequence (P05067 672-713 limits assumed): as above
Protocol: as §1, §2, §3
For the preparation of fibrillar Aβ(1-42), the pellets obtained after the evaporation were dissolved in 10 mM sodium phosphate buffer pH 7.4 and incubated for 24 hours at 25° C. and at 600 rpm.
as §6
The monomers are biotinylated C-terminally, unlike the oligomers and fibrils (N-terminally). The response units (Y-axis) were plotted against the time in seconds (X-axis), wherein the black curves represent the double-referenced experimental data and the gray superposed curves represent the fits. For characterizing the scFv-IC16, therefore, measurements using biotinylated Aβ(1-42) are possible; C-terminally biotinylated Aβ(1-42) was used here. For fitting to monomers, a 1:1 Langmuir binding model was used and oligomers and fibrils were fitted to a heterogeneous binding model which takes account of two different binding sites on the sensor surface. It can clearly be seen that the fits coincide very well with the experimental data. This is direct evidence of the successful immobilization of the various forms and the respectively homogeneous surface.
The index a1 and d1 refer respectively to the association and dissociation rate of the antibody fragment scFv-IC16 on the respective exposed epitope of the conformer. The index a2 and d2, on the other hand, refer respectively to the association and dissociation rate of the antibody fragment scFv-IC16 on discontinuous epitopes of the respective conformer. Analogously, the indices D1 and D2 refer to the dissociation constants on the continuous and discontinuous epitope.
The D-enantiomeric peptide D7 was identified by a mirror image […] selection and analyzed using the method described above with regard to the binding properties, by way of example as a substance to be tested. In a manner differing from the measurement data in FIG. 3, in this case, all the different Aβ(1-42) conformers (monomers, oligomers and fibrils) were prepared by means of density gradient centrifugation and immobilized in various quantities on the sensor surface. In the case of the monomers, 1423 RU were immobilized, in the case of the oligomers 1356 RU, and in the case of the fibrils 1324 RU. […]

[1] = sub-reaction 1, read-out: ka1 association rate
[2] = sub-reaction 1, read-out: kd1 dissociation rate
[3] = sub-reaction 2, read-out: ka2 association rate
[4] = sub-reaction 2, read-out: kd2 dissociation rate

## CSCC[C@@H](NC(=O)[C@@H](Cc1c[nH]cn1)NC(=O)[C@@H](Cc1ccc(O)cc1)NC(=O)[C@H](NC(=O)[C@@H](Cc1ccc(O)cc1)NC(=O)[C@@H](Cc1ccc(O)cc1)NC(=O)[C@@H](CCC(=O)O)NC(=O)[C@@H](Cc1ccccc1)NC(=O)[C@@H](CCCNC(=N)N)NC(=O)[C@H](NC(=O)[C@H](N)Cc1c[nH]cn1)[C@H](C)O)C(C)C)C(=O)N[C@H](CO)C(=O)O [D7, htrfeyyvyhms] (H-[dH][dT][dR][dF][dE][dY][dY][dV][dY][dH][dM][dS]-OH; N-terminus and C-terminus assumed)
Aβ(1-42) monomers; [1]
  kon: 2420 M⁻¹ s⁻¹
Aβ(1-42) monomers; [2]
  koff: 0.000364 s⁻¹
Aβ(1-42) monomers; [3]
  kon: 100000 M⁻¹ s⁻¹
Aβ(1-42) monomers; [4]
  koff: 0.00928 s⁻¹
Aβ(1-42) oligomers; [1]
  kon: 4520 M⁻¹ s⁻¹
Aβ(1-42) oligomers; [2]
  koff: 0.000402 s⁻¹
Aβ(1-42) oligomers; [3]
  kon: 66200 M⁻¹ s⁻¹
Aβ(1-42) oligomers; [4]
  koff: 0.0153 s⁻¹
Aβ(1-42) fibrils; [1]
  kon: 18200 M⁻¹ s⁻¹
Aβ(1-42) fibrils; [2]
  koff: 0.262 s⁻¹
Aβ(1-42) fibrils; [3]
  kon: 1320 M⁻¹ s⁻¹
Aβ(1-42) fibrils; [4]
  koff: 0.000193 s⁻¹
Aβ(1-42) fibrils; sub-reaction 3, read-out: ka3 association rate
  kon: 32300 M⁻¹ s⁻¹
Aβ(1-42) fibrils; sub-reaction 3, read-out: kd3 dissociation rate
  koff: 0.0125 s⁻¹
